This note sets out measurements from patent publication US20250154134A1, “COMPOUND AS FAK INHIBITOR AND USE THEREOF” (WIGEN BIOMEDICINE TECHNOLOGY (SHANGHAI) CO., LTD., priority 2022, published 2025).

Series [1] concerns PC3 cells. Kind of series: PC3 cell proliferation, 3D activity assay (3D culture, 14 days). Type of series: cell-based, human. The following applies: Homo sapiens, PC-3, 336 h, read-out: 3D inhibitory activity against PC3 cells IC50.
The test system of series [2] is PC3 cells. In words: PC3 cell proliferation, 2D activity assay (Cell Titer-Lumi, 72 h). Type of series: cell-based, human. The following applies: Homo sapiens, PC-3, read-out: 2D inhibitory activity against PC3 cells IC50.
In series [3] the test system is Human prostate cancer PC3 cells. In words: In vivo efficacy, PC3 xenograft in nude mice. Further details: species or system mouse. Conditions: PC-3 model, 25 mg/kg, QD (21 days), PO. The method, then: The groups were as follows: 1) a solvent control group, 8 mice; and 2) a control compound group and a test compound group, 8 mice each. The mice in the solvent control group were intragastrically administered 0.5% CMC-Na twice a day; the mice in the compound groups were intragastrically administered 0.5% MC-Tween-80 suspension once a day. On Tuesday and Thursday each week, tumor volumes and body weight of the mice were measured, and the nude mice were sacrificed on day 21 after the administration. […] The toxicity of the compounds was evaluated according to the body weight of the mice.

The next series has as its target FAK recombinant protein (Homo sapiens (Human), UniProt Q05397). In words: Inhibitory activity against FAK enzyme (HTRF, TK substrate). Type of series: biochemical. The method, then:
A compound serially diluted with DMSO was mixed with a FAK recombinant protein. After the mixture was left to stand at room temperature for 10 min, a biotin-labeled TK substrate (TK) and ATP were added. […] The inhibition percentage and IC50 of the compound were calculated compared to the DMSO control group.

Series [4] in a line: In vivo pharmacokinetic experiment in CD-1 mice. Conditions: mouse, plasma, CD-1 female mice; for Vd: read-out: Vdss. The method, then:
[…] The mice were fasted for at least 12 h before the administration and given food 4 h after the administration, and they were given ad libitum access to water during the experiment.
On the day of the experiment, animals in the intravenous group were given the corresponding compound by single injection via the tail vein at an administration volume of 10 mL/kg; and animals in the oral group were given the corresponding compound by single intragastric injection at an administration volume of 10 mL/kg. The animals were weighed before administration, and the administration volume was calculated according to the body weight. The sample collection time points were 0.083 h, 0.167 h, 0.5 h, 1 h, 2 h, 4 h, 8 h, and 24 h. About 200 μL of whole blood was collected through the orbital venous plexus at each time point and used to prepare plasma for concentration determination by high-performance liquid chromatography-tandem mass spectrometry (LC-MS/MS). The plasma concentrations were processed using a non-compartmental model of Winnolin pharmacokinetic software, and the pharmacokinetic parameters were calculated using a linear-log trapezoidal method.

The subject of series [5] is PC3 cells. Kind of series: Inhibition of PC3 cell low adsorption (adherent cell count, 4 h). Type of series: cell-based. Conditions: Homo sapiens, PC-3; 4 h treatment; read-out: IC50 against PC3 cell low adsorption. The method, then:
PC3 cells were seeded at 8000 cells/well. 4 h after the cells were treated with a compound, the number of adherent cells was counted. The inhibition percentage and IC50 of the compound were calculated compared to the DMSO group.

In series [6] the test system is Human pancreatic cancer Mia PaCa-2 cells. In words: In vivo efficacy, Mia PaCa-2 xenograft in nude mice. Further details: species or system mouse. Conditions: MiaPaCa-2 model, 25 mg/kg PO QD 21 days. How it is done: The groups were as follows: 1) a solvent control group, 8 mice; and 2) a control compound group and a test compound group, 8 mice each. The mice in the solvent control group were intragastrically administered 0.5% CMC-Na twice a day; the mice in the compound groups were intragastrically administered 0.50% MC-Tween-80 suspension once a day. On Tuesday and Thursday each week, tumor volumes and body weight of the mice were measured, and the nude mice were sacrificed on day 21 after the administration. […] The toxicity of the compounds was evaluated according to the body weight of the mice.

In series [7] the test system is Mouse colon cancer MC38 cells. In words: In vivo efficacy, MC38 model in BALB/c mice, single drug and PD-1 combination. The following applies: MC-38 model, single drug, 50 mg/kg, QD (21 days), PO. How it is done:
Female BALB/c mice (aged 6 weeks, 18-22 g) were provided by Vital River Laboratory Animal Technology Co., Ltd. (China) and used one week after quarantine and acclimation. All animals were kept in a room at 23±2° C. with a relative humidity of 50±5%, artificial lighting was provided from 08:00 to 20:00 every day, and the air was exchanged 13-18 times per hour.
After being subcultured, the cells were collected when they reached the desired amount. The BALB/c mice were subcutaneously injected with 1×10^6 MC38 cells on the right side to form tumors. […] Administration was then started. Tumor volumes were measured with a caliper on day 3, day 7, day 10, day 14, day 17, and day 21 after the administration.
The toxicity of the compounds was evaluated according to the body weight and state of the mice.

Series [8] deals with phosphorylation at the FAK 397 site. In words: Inhibition of Y397 phosphorylation in PC3 cells (ELISA). Type of series: cell-based. Conditions: Homo sapiens, PC-3, 3 h treatment, read-out: IC50 against Y397 phosphorylation. How it is done: PC3 cells were seeded at 8000 cells/well. […] The inhibition percentage and IC50 of the compound were calculated compared to the DMSO group.

Structures are written as SMILES.

Chain of FAK recombinant protein (Q05397 whole entry): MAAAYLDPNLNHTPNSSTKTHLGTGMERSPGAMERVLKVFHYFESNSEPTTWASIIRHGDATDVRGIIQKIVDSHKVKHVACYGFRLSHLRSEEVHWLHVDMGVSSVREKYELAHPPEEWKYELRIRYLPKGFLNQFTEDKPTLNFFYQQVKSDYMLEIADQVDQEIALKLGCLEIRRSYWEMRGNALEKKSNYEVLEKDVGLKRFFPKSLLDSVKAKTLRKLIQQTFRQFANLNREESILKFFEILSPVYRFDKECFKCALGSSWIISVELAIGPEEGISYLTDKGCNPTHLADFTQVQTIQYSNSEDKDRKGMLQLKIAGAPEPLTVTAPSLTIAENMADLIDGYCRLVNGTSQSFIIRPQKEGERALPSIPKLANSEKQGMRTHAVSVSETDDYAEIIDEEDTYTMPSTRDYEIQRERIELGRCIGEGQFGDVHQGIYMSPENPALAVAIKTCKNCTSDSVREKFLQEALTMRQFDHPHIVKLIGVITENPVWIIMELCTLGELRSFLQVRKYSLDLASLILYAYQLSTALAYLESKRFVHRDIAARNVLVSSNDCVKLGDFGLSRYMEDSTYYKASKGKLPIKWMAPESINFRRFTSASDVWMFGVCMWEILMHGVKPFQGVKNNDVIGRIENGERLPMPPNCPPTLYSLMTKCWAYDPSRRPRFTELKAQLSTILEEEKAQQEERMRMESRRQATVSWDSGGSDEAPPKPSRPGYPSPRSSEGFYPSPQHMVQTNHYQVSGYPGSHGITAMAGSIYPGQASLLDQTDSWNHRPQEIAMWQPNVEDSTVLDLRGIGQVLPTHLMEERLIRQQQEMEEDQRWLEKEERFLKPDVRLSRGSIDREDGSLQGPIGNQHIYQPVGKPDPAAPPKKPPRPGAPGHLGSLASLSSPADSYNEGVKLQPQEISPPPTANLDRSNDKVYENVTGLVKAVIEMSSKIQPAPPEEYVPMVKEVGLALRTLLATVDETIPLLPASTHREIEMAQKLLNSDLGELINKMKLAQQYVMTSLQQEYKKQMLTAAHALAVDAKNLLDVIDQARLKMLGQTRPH

With `COc1cc(N2CC3(CCN(C)CC3)C2)ccc1Nc1ncc(C(F)(F)F)c(Oc2cccc3c2C(=O)N(C)C32CC2)n1` [Compound 79], the IC50 in the series with PC3 cells [1] was 0.32 nM; in the series on PC3 cells [2], > 10000 nM; on FAK recombinant protein it was < 20 nM; in the series on PC3 cells [5], 1.09 nM. The “TGI(%)” value turned out to be 88.33% in [3], 89.35% in series [6] and 69.21% in series [7]. Moreover, the AUC(0-t) in series [4] (iv, injection (1 mg/kg)) was determined as 883 ng·h/mL; in [4] (oral administration, 5 mg/kg), 1760 ng·h/mL. In addition, the clearance in series [4] (iv, injection (1 mg/kg)) came out at 18.9 mL/min/kg. For the same compound, the half-life in [4] (iv, injection (1 mg/kg)) is 3.48 h; in series [4] (oral administration, 5 mg/kg) it was 3.06 h. The Vd in series [4] (iv, injection (1 mg/kg)) amounted to 5.14 L/kg. Also, the Cmax in series [4] (oral administration, 5 mg/kg) is 201 ng/mL. The Tmax in series [4] (oral administration, 5 mg/kg) was determined as 4 h. The bioavailability in [4] (oral administration, 5 mg/kg) turned out to be 40%.
Consider `COc1cc(N2CC3(CCN(C)CC3)C2)c(F)cc1Nc1ncc(C(F)(F)F)c(Oc2cccc3c2C(=O)N(C)C32CC2)n1` [Compound 120, 4′-((2-((5-fluoro-2-methoxy-4-(7-methyl-2,7-diazaspiro[3.5]nonan-2-yl)phenyl)amino)-5-(trifluoromethyl)pyrimidin-4-yl)oxy)-2′-methylspiro[cyclopropane-1,1′-isoindolin]-3′-one], for which the IC50 in series [8] is < 0.01 nM. For the same compound, the IC50 with PC3 cells [1] was 0.46 nM. Besides, in the series on PC3 cells [2], the half-maximal inhibitory concentration (IC50) was > 2000 nM. Besides, in [3], the “TGI(%)” value came out at 90.83%. At FAK recombinant protein, the IC50 was < 20 nM. In addition, in [4] (iv, injection (1 mg/kg)), the AUC(0-t) stood at 850 ng·h/mL, the clearance worked out at 19.6 mL/min/kg, the half-life was 4.69 h and the Vd worked out at 6.15 L/kg. In series [4] (oral administration (10 mg/kg)), the area under the curve AUC(0-t) worked out at 6120 ng·h/mL, the Cmax turned out to be 522 ng/mL, the Tmax turned out to be 4 h and the bioavailability was found to be 72%. This compound showed a half-life in series [4] (oral administration (10 mg/kg)) of 5.26 h. The IC50 in the series with PC3 cells [5] amounted to 1.46 nM. Also, the “TGI(%)” value in series [7] was determined as 66.33%.
For `COc1cc(N2CC3(CCN(C)CC3)C2)ccc1Nc1ncc(Cl)c(Oc2cccc3c2C(=O)N(C)C32CC2)n1` [Compound 136, 4′-((5-chloro-2-((2-methoxy-4-(7-methyl-2,7-diazaspiro[3.5]nonan-2-yl)phenyl)amino)pyrimidin-4-yl)oxy)-2′-methylspiro[cyclopropane-1,1′-isoindolin]-3′-one], the IC50 in series [8] is 0.22 nM; with PC3 cells [1], 0.6 nM; with PC3 cells [2], > 10000 nM; at FAK recombinant protein it was < 20 nM; in the series with PC3 cells [5], 1.16 nM. The “TGI(%)” value in series [3] is 76.67%; in series [6] it was 89.46%; in series [7], 32.53%. Besides, the AUC(0-t) in series [4] (iv, injection (1 mg/kg)) is 1110 ng·h/mL; in series [4] (oral administration (10 mg/kg)), 8910 ng·h/mL. In series [4] (iv, injection (1 mg/kg)), this compound gave a clearance of 15 mL/min/kg. The half-life in [4] (iv, injection (1 mg/kg)) was 3.31 h; in [4] (oral administration (10 mg/kg)), 2.2 h. In [4] (iv, injection (1 mg/kg)), the Vd came to 4.15 L/kg. The compound also had a Cmax in [4] (oral administration (10 mg/kg)) of 907 ng/mL. The Tmax in series [4] (oral administration (10 mg/kg)) was 2 h. In series [4] (oral administration (10 mg/kg)), the bioavailability amounted to 80.2%.
Turning to `COc1cc(N2CC3(CCN(C)CC3)C2)c(F)cc1Nc1ncc(Cl)c(Oc2cccc3c2C(=O)N(C)C32CC2)n1` [Compound 137, 4′-((5-chloro-2-((5-fluoro-2-methoxy-4-(7-methyl-2,7-diazaspiro[3.5]nonan-2-yl)phenyl)amino)pyrimidin-4-yl)oxy)-2′-methylspiro[cyclopropane-1,1′-isoindolin]-3′-one], the IC50 in series [8] turned out to be 0.08 nM. Moreover, the IC50 in the series on PC3 cells [1] turned out to be 1.4 nM. In addition, the IC50 in the series on PC3 cells [2] is > 10000 nM. The “TGI(%)” value in series [3] was found to be 76.39%. In addition, on FAK recombinant protein, the IC50 was < 20 nM. Also, in series [4] (iv, injection (1 mg/kg)), the AUC(0-t) was 1390 ng·h/mL, the clearance came out at 12 mL/min/kg, the half-life was 3.67 h and the Vd came out at 3.71 L/kg. In series [4] (oral administration (10 mg/kg)), the AUC(0-t) stood at 12400 ng·h/mL, the highest level (Cmax) was 810 ng/mL, the Tmax is 4 h and the bioavailability came out at 89.4%. Besides, the half-life in series [4] (oral administration (10 mg/kg)) was 4.19 h. Besides, the half-inhibitory concentration (IC50) with PC3 cells [5] came to 1.71 nM. The “TGI(%)” value in [6] was determined as 87.68%.
